Converted amounts (≈) assume the structure as drawn. Blank lines part the entries; values can stand above or below the compound they belong to. Square brackets hold non-standard residues; d marks the D form. Peptide text beside a SMILES is read from it. * marks the point of attachment. 2Nal = N[C@@H](Cc1ccc2ccccc2c1)C(=O)O; Ahx = NCCCCCC(=O)O; StBu = CC(C)(C)S*; tBu = CC(C)(C)*
Legend:
[1] = tested on: Escherichia coli ATCC 25922; assay type: cell-based
Protocol: The antimicrobial activity of the three designed peptides was tested against Escherichia coli (ATCC® 25922™), Pseudomonas aeruginosa (ATCC® 27853™), Pseudomonas aeruginosa PAO1 wild type strain, Bacillus subtilis subsp. spizizenii (ATCC® 6633™), Staphylococcus aureus (ATCC® 6538 P™) and Staphylococcus aureus MRSA WKZ-2 (kindly provided by collection of Prof. Edwin Veldhuizen, University of Utrecht, Holland). MIC assays were performed by broth microdilution method as described elsewhere[34] using Nutrient Broth (Becton Dickinson Difco, Franklin Lakes, NJ) as bacterial growth medium. […] Experiments were performed three times for each peptide.
Following the incubation time, MIC assays were carried out as previously described. […] Experiments were performed five times for each peptide.

[2] = tested on: Escherichia coli (ATCC 25922); assay type: cell-based
Protocol: (§2) MIC assays were performed by broth microdilution method as described elsewhere[34] using Nutrient Broth (Becton Dickinson Difco, Franklin Lakes, NJ) as bacterial growth medium. […] Experiments were performed three times for each peptide.

[3] = tested on: Pseudomonas aeruginosa (ATCC 27853); assay type: cell-based
Protocol: as §2

[4] = tested on: Pseudomonas aeruginosa PAO1 wild type strain; assay type: cell-based
Protocol: as §2

[5] = tested on: Bacillus subtilis subsp. spizizenii (ATCC 6633); assay type: cell-based
Protocol: as §2

[6] = tested on: Staphylococcus aureus MRSA WKZ-2; assay type: cell-based
Protocol: as §2

[7] = tested on: Staphylococcus aureus (ATCC 6538P); assay type: cell-based
[8] = tested on: human intestinal CaCo-2 cells; assay type: cell-based
Protocol: (§1) Cytotoxic effects of the three peptides on human epithelial colorectal adenocarcinoma cells (CaCo-2) and on aneuploid immortal keratinocyte cells line from adult human skin (HaCaT) were assessed by performing the (3-(4,5-dimethylthiazol-2-yl)−2,5 diphenyltetrazolium bromide (MTT) reduction inhibition assay. Both human cell lines were obtained from the American Type Culture Collection (ATCC, Manassas, VA, USA) and grown at 37 °C in a humidified incubator containing 5% CO2 in Dulbecco’s modified Eagle’s medium (DMEM) supplemented with 10% fetal bovine serum, 4 mM glutamine, 400 units/mL penicillin, and 0.1 mg mL^−1 streptomycin. Cells were plated on 96-well plates at a density of 5 × 10^3 per well in 100 μL of medium and incubated at 37 °C with 5% CO2. Medium was then replaced with 100 μl of fresh media containing peptide solution to a final concentration ranging from 0.1–10 μM/well. After a time of incubation ranging from 18 to 48 hours at 37 °C, the peptide-containing medium was removed, and 10 μL of a 5 mg mL^−1 MTT stock solution in DMEM without red phenol, corresponding to a final concentration of […] in DMEM (final volume of 100 μL), was added to the cells. […] Cell survival was reported as the relative absorbance, with respect to control, of blue formazan measured at 570 nm with a Synergy Multi Plate Reader. […]

[9] = tested on: human keratinocytes cells HaCaT; assay type: cell-based
Protocol: as §1

[10] = Relative hydrophobicity by retention in reverse phase HPLC; assay type: physicochemical; conditions: chromatographic, Fig. S4 and Table S1 (numbers not available here)
Protocol: Crude peptides were purified by preparative HPLC on a Shimadzu LC-8A system. A Vydac C18 column (22 mm × 250 mm; 10 μm) was used, eluted with a H2O 0.1% TFA, (eluent A) and CH3CN 0.1% TFA (eluent B) linear gradient at 22 mL min^−1 flow rate. Fractions were separated according to their absorbance at 210 nm by an online UV detector (Shimadzu). Peptide fractions were then checked for their purity by analytical LCMS. Peptide identities were confirmed by LCMS analysis on a Shimadzu 20ADxr coupled with a Shimadzu ESI-IT-TOF mass detector (probe voltage 4.5 kV; probe temperature 25 °C; desolvation temperature 250 °C; detector voltage 1.5 kV). All analyses were performed with a Vydac C18 column (2.1 mm × 100 mm; 5 μm), eluted with a H2O 0.05% TFA, (eluent A) and CH3CN 0.05% TFA (eluent B) linear gradient, from 5% to 95% (solvent B), over 30 minutes, at 0.2 ml min^−1 flow rate. Pure fractions were pooled and lyophilized as TFA salts (purity >95%). Peptide samples for biological assays were further subjected to counter ion exchange on a DEAE-Sephadex weak […] resin. Briefly, peptide solutions in water were loaded on a 0.5 mL syringe column, and then eluted by decreasing the pH with an acetate buffer at pH 4.3 to obtain the desired peptide acetate salt. Further, the relative hydrophobicities of P9 peptides were evaluated through their retention in reverse phase HPLC.

MIC, E. coli ATCC25922 [2]: 10 µM (≈ 13.4 µg/mL) | MIC, P. aeruginosa ATCC27853 [3]: 1.25 µM (≈ 1.68 µg/mL) | MIC, PAO1 Wt [4]: 10 µM (≈ 13.4 µg/mL) | MIC, B. spizizenii ATCC6633 [5]: 40 µM (≈ 53.6 µg/mL) | MIC, S. aureus MRSA [6]: 40 µM (≈ 53.6 µg/mL) | MIC, S. aureus ATCC6538P [7]: 40 µM (≈ 53.6 µg/mL) | Fold change (1 h) [1]: 1 | Fold change (16 h) [1]: >8
Structure (SMILES): CC(C)(C)SC[C@H](NC(=O)CCCCCN)C(=O)N[C@@H](CCCCN)C(=O)N[C@@H](Cc1ccc2ccccc2c1)C(=O)N[C@@H](Cc1ccc2ccccc2c1)C(=O)N[C@@H](CCCCN)C(=O)N[C@@H](CCCCN)C(=O)N[C@@H](CSC(C)(C)C)C(=O)NCCCCCC(N)=O [P9Nal(SR)] (H-[Ahx]C(tBu)K[2Nal][2Nal]KKC(tBu)[Ahx]-NH2)
toxic effect on CaCo2 cells at low doses, compared with HaCaT [8]: slightly higher | toxic effects on HaCaT cells at low doses [9]: no evident toxic effects

MIC, E. coli ATCC25922 [2]: 10 µM (≈ 14 µg/mL) | MIC, P. aeruginosa ATCC27853 [3]: 2.5 µM (≈ 3.51 µg/mL) | MIC, PAO1 Wt [4]: 10 µM (≈ 14 µg/mL) | MIC, B. spizizenii ATCC6633 [5]: 10 µM (≈ 14 µg/mL) | MIC, S. aureus MRSA [6]: 20 µM (≈ 28.1 µg/mL) | MIC, S. aureus ATCC6538P [7]: 10 µM (≈ 14 µg/mL) | Fold change (1 h) [1]: 1 | relative hydrophobicity (retention in reverse phase HPLC) [10]: most hydrophobic
Structure (SMILES): CC(C)(C)SSC[C@H](NC(=O)CCCCCN)C(=O)N[C@@H](CCCCN)C(=O)N[C@@H](Cc1ccc2ccccc2c1)C(=O)N[C@@H](Cc1ccc2ccccc2c1)C(=O)N[C@@H](CCCCN)C(=O)N[C@@H](CCCCN)C(=O)N[C@@H](CSSC(C)(C)C)C(=O)NCCCCCC(N)=O [P9Nal(SS)] (H-[Ahx]C(StBu)K[2Nal][2Nal]KKC(StBu)[Ahx]-NH2)

Further lines, the compound ahead of its results:

Structure (SMILES): CC(=O)N[C@@H](CC(C)C)C(=O)N[C@@H](CCCNC(=N)N)C(=O)N[C@H](C(=O)N[C@@H](CCCNC(=N)N)C(=O)N[C@@H](CC(C)C)C(=O)N[C@@H](C)C(=O)N[C@@H](CO)C(=O)N[C@@H](Cc1c[nH]cn1)C(=O)N[C@@H](CC(C)C)C(=O)N[C@@H](CCCNC(=N)N)C(=O)N[C@@H](CCCCN)C(=O)N[C@@H](CC(C)C)C(=O)N[C@@H](CCCNC(=N)N)C(=O)N[C@@H](CCCCN)C(=O)N[C@@H](CCCNC(=N)N)C(=O)N[C@@H](CC(C)C)C(=O)N[C@@H](CC(C)C)C(=O)N[C@@H](CCCNC(=N)N)C(N)=O)C(C)C [Ac-ApoE(133–150)-NH2, reference compound]
Fold change (16 h) [1]: >16

Structure (SMILES): CC(C)C[C@H](NC(=O)[C@H](CCCNC(=N)N)NC(=O)[C@@H](NC(=O)[C@H](CCCNC(=N)N)NC(=O)[C@@H](N)CC(C)C)C(C)C)C(=O)N[C@@H](C)C(=O)N[C@@H](CO)C(=O)N[C@@H](Cc1c[nH]cn1)C(=O)N[C@@H](CC(C)C)C(=O)N[C@@H](CCCNC(=N)N)C(=O)N[C@@H](CCCCN)C(=O)N[C@@H](CC(C)C)C(=O)N[C@@H](CCCNC(=N)N)C(=O)N[C@@H](CCCCN)C(=O)N[C@@H](CCCNC(=N)N)C(=O)N[C@@H](CC(C)C)C(=O)N[C@@H](CC(C)C)C(=O)N[C@@H](CCCNC(=N)N)C(=O)O [ApoE(133–150), reference compound]
Fold change (1 h) [1]: >16 | Fold change (16 h) [1]: >16 | MIC, Preincubation for 1 h in 10% serum ([1]; E. coli ATCC 25922, peptide incubated 1 h in 10% fetal bovine serum at 37 °C before MIC assay, five replicates): completely lost antimicrobial activity

Structure (SMILES): CC(C)(C)SSC[C@H](NC(=O)CCCCCN)C(=O)N[C@@H](CCCCN)C(=O)N[C@@H](Cc1c[nH]c2ccccc12)C(=O)N[C@@H](Cc1c[nH]c2ccccc12)C(=O)N[C@@H](CCCCN)C(=O)N[C@@H](CCCCN)C(=O)N[C@@H](CSSC(C)(C)C)C(=O)NCCCCCC(N)=O [P9Trp(SS)] (H-[Ahx]C(StBu)KWWKKC(StBu)[Ahx]-NH2)
MIC, E. coli ATCC25922 [2]: 10 µM (≈ 13.8 µg/mL) | MIC, P. aeruginosa ATCC27853 [3]: 2.5 µM (≈ 3.46 µg/mL) | MIC, PAO1 Wt [4]: 10 µM (≈ 13.8 µg/mL) | MIC, B. spizizenii ATCC6633 [5]: 40 µM (≈ 55.3 µg/mL) | MIC, S. aureus MRSA [6]: 40 µM (≈ 55.3 µg/mL) | MIC, S. aureus ATCC6538P [7]: 20 µM (≈ 27.7 µg/mL) | Fold change (1 h) [1]: 1

Source: PMC5995839, “Exploring the role of unnatural amino acids in antimicrobial peptides” (Scientific Reports, 2018)
